The values below come from US9815796B2 (Merck Sharp & Dohme Corp., priority 2013, dated 2017).

Each structure is given as a SMILES string. Where two headings read alike, the source gives them in different places.

One experiment deals with Rhesus PDE2A3 (Macaca mulatta, UniProt B3VTJ2). Nature of the experiment: PDE2 fluorescence polarization (IMAP FP) inhibition assay, rhesus enzyme. In kind it is biochemical, rhesus macaque. Summed up:
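Rhesus PDE2A3 came from lysate of transiently transfected AD293 cells, diluted to give 20% substrate conversion. Substrate was 50 nM FAM-cAMP with 1 uM cGMP activator in Tris pH 7.2/MgCl2 buffer, run 60 min at room temperature over 10-point 3-fold dilutions in 1% DMSO. Read-out was IMAP fluorescence polarization (mP) after ≥1 h binding.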

For another experiment, the target named is human PDE2A1 (Homo sapiens (Human), UniProt O00408). Nature of the experiment: IMAP FP PDE selectivity panel, human PDE2A1. The experiment is classed as biochemical. Summed up:
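GST-tagged human PDE2A1 expressed in insect cells, run at room temperature for 60 min with 50 nM FAM-cAMP containing 1000 nM cGMP, pH 7.2 Tris/MgCl2 buffer. IMAP fluorescence polarization read after binding step.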

The mark [1] stands for this setting: Rhesus PDE2, Lab B, read-out: Rhesus PDE2 Ki (nM) - Lab B.
The mark [2] stands for this setting: Human PDE2, Lab B, read-out: Human PDE2 Ki (nM) - Lab B.
[3] abbreviates: Rhesus PDE2, Lab A, read-out: Rhesus PDE2 Ki (nM) - Lab A.
Setting [4] is: Human PDE2, Lab A, read-out: Human PDE2 Ki (nM) - Lab A.

Chain of human PDE2A1 (O00408 other isoform, or with tags, fused parts or gaps): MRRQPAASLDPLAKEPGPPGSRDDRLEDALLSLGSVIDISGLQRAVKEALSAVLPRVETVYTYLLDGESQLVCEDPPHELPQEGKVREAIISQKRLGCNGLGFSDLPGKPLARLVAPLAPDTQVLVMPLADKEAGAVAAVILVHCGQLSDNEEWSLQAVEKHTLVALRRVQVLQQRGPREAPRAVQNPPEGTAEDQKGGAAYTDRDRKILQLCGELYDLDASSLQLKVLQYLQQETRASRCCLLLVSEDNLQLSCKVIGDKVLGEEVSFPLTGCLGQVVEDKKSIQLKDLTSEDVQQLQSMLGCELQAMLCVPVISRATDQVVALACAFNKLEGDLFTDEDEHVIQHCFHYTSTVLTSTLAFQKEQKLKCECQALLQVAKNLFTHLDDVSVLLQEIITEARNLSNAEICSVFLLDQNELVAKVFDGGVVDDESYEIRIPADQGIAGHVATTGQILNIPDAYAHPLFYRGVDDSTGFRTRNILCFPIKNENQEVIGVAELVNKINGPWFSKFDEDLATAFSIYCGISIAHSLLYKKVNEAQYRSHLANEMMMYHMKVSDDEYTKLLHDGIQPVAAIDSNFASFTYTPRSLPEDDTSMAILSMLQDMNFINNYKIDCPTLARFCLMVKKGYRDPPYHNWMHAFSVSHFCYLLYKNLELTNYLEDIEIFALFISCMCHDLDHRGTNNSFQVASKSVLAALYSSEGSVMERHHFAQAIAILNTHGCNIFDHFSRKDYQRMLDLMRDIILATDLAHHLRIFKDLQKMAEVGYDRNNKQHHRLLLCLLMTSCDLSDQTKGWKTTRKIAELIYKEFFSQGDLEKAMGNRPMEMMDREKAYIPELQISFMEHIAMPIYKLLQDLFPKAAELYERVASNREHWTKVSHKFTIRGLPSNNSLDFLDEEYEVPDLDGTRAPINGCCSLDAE
Chain of Rhesus PDE2A3 (B3VTJ2 1-941): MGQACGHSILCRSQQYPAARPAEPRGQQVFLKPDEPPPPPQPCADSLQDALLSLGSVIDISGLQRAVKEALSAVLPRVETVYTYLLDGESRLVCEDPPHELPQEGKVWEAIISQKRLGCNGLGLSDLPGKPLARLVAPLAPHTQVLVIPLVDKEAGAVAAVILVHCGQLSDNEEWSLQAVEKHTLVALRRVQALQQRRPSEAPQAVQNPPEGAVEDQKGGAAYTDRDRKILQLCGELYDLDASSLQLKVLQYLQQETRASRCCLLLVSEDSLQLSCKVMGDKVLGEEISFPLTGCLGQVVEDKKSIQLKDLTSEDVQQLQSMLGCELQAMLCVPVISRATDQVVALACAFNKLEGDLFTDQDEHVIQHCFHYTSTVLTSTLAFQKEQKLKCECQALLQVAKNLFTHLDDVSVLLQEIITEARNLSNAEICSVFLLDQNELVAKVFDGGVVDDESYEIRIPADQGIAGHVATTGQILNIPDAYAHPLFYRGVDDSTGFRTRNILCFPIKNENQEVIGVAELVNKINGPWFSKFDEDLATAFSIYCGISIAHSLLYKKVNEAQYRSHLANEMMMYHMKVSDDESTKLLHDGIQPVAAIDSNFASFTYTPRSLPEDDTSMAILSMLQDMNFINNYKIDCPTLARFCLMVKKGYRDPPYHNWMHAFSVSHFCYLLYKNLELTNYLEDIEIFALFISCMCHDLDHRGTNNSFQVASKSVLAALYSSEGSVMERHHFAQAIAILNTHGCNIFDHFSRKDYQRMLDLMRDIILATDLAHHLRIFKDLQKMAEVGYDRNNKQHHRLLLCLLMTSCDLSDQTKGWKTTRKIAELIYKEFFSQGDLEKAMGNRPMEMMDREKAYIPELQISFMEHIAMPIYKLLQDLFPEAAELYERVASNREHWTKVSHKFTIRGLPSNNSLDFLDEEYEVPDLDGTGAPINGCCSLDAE

As a reminder, the Ki is a dissociation constant, usually derived from enzyme kinetics or from competition with a known ligand. Consider `CC1(C(NC(=O)c2cc(=O)[nH]c(C3CC3)n2)c2ccc(SC(F)(F)F)c(F)c2)CC1` (single isomer, unassigned) [Example 704, (R)- or (S)-2-cyclopropyl-N-((3 fluoro-4-((trifluorormethyl)thio)phenyl)(1-methylcyclopropyl)methyl)-6-oxo-1,6-dihydropyrimidine-4-carboxamide], for which the Ki came to 4.7 nM on Rhesus PDE2A3 (setting [1]) and 3.6 nM on human PDE2A1 (setting [2]).
Consider `O=C(NC(CCO)c1ccc(C(F)(F)F)cc1)c1cc(=O)[nH]c(-c2ccccc2)n1` (stereo not drawn) [Example 421, N-{3-hydroxy-1-[4-(trifluoromethyl)phenyl]propyl}-6-oxo-2-phenyl-1,6-dihydropyrimidine-4-carboxamide], for which the Ki on Rhesus PDE2A3 (setting [1]) is 14 nM; at human PDE2A1 (setting [2]), 9.4 nM.
In the case of `C[C@@H](NC(=O)c1cc(=O)[nH]c(-c2ccc(F)c(F)c2)n1)c1ccc(C(F)(F)F)cc1` [Example 139, 2-(3,4-difluorophenyl)-6-oxo-N-{(1R)-1-[4-(trifluoromethyl)phenyl]ethyl}-1,6-dihydropyrimidine-4-carboxamide], the Ki was determined as 138 nM on Rhesus PDE2A3 (setting [3]) and 144 nM at human PDE2A1 (setting [4]).
As for `CC[C@@H](NC(=O)c1cc(=O)[nH]c(C2CC2)n1)c1ccc(C(F)(F)F)c(F)c1` [Example 254, 2-cyclopropyl-N-{(1R)-1-[3-fluoro-4-(trifluoromethyl)phenyl]propyl}-6-oxo-1,6-dihydropyrimidine-4-carboxamide], the Ki on Rhesus PDE2A3 (setting [3]) is 17 nM; on Rhesus PDE2A3 (setting [1]) it was 23 nM; at human PDE2A1 (setting [4]) it was roughly 13 nM; on human PDE2A1 (setting [2]) it was 22 nM.
On to `COc1ccc(Cc2nc(C(=O)N[C@@H](c3ccc(SC(F)(F)F)cc3)C(C)(C)C)cc(=O)[nH]2)cc1F` [Example 507, N-[(1R)-2,2-dimethyl-1-{4-[(trifluoromethyl)sulfanyl]phenyl}propyl]-2-(3-fluoro-4-methoxybenzyl)-6-oxo-1,6-dihydropyrimidine-4-carboxamide], for which the Ki at Rhesus PDE2A3 (setting [1]) came out at 1.1 nM; at human PDE2A1 (setting [2]), 1 nM.
For `Cc1cc([C@@H](C)NC(=O)c2cc(=O)[nH]c(-c3ccccc3)n2)ccc1C(F)(F)F` [Example 189], the Ki at Rhesus PDE2A3 (setting [3]) amounted to 10 nM; at human PDE2A1 (setting [4]), 9.7 nM.
For the compound `COc1ccc2cc(C(C)NC(=O)c3cc(=O)[nH]c(-c4ncccn4)n3)ccc2c1` (stereo not drawn) [Example 84, N-[1-(6-methoxynaphthalen-2-yl)ethyl]-6-oxo-1,6-dihydro-2,2′-bipyrimidine-4-carboxamide], the figures for the Ki on Rhesus PDE2A3 (setting [3]) and on human PDE2A1 (setting [4]) were 117 nM and 28 nM, respectively.
For the compound `CSCc1nc(C(=O)N[C@H](C)c2ccc(C(F)(F)F)cc2)cc(=O)[nH]1` [Example 36, 2-[(methylsulfanyl)methyl]-6-oxo-N-{(1R)-1-[4-(trifluoromethyl)phenyl]ethyl}-1,6-dihydropyrimidine-4-carboxamide], the Ki on Rhesus PDE2A3 (setting [3]) worked out at 163 nM; at human PDE2A1 (setting [4]), 116 nM.
Turning to `COc1cc(C(F)(F)F)ccc1[C@@H](C)NC(=O)c1cc(=O)[nH]c(C2CC2)n1` [Example 219, 2-cyclopropyl-N-{(1R)-1-[2-methoxy-4-(trifluoromethyl)phenyl]ethyl}-6-oxo-1,6-dihydropyrimidine-4-carboxamide], the Ki on Rhesus PDE2A3 (setting [3]) was 43 nM; at human PDE2A1 (setting [4]), 31 nM.
Regarding `Cc1nc(C(=O)NC2(c3ccc(SC(F)(F)F)c(F)c3)CCC2)cc(=O)[nH]1` [Example 129, N-(1-{3-fluoro-4-[(trifluoromethyl)sulfanyl]phenyl}cyclobutyl)-2-methyl-6-oxo-1,6-dihydropyrimidine-4-carboxamide], the Ki at Rhesus PDE2A3 (setting [3]) worked out at 218 nM; at human PDE2A1 (setting [4]), 184 nM.
The matching figures for `O=C(N[C@@H](c1ccc(SC(F)(F)F)cc1)C1CC1)c1cc(=O)[nH]c(-c2ncccn2)n1` [Example 95, N-[(R)-cyclopropyl{4-[(trifluoromethyl)sulfanyl]phenyl}methyl]-6-oxo-1,6-dihydro-2,2′-bipyrimidine-4-carboxamide]: 7.4 nM and 3.1 nM.
